Read-outs that look alike come from different tables or passages of the source.
Tests used:
Assay type in all cases: biochemical
CatG [1] = molecular target: T1, CatG (Homo sapiens, UniProt P08311); assay: Michaelis-Menten kinetics of chromogenic substrate (S-7388) hydrolysis by CatG
T1 sequence (P08311 21-244): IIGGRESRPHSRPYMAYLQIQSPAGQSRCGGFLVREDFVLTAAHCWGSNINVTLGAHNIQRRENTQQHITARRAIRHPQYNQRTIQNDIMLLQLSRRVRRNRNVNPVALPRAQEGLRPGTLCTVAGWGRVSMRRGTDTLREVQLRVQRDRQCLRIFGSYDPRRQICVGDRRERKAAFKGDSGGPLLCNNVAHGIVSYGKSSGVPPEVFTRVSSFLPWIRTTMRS
Protocol: The initial rate of the hydrolysis of the chromogenic substrate by CatG was monitored from the linear increase in absorbance corresponding to less than 10% consumption of substrate at 37° C. in pH 7.4 20 mM Tris buffer containing 100 mM NaCl, 2.5 mM CaCl2, 0.1% PEG 8000 and 0.05% tween 80. The initial rate was measured at various substrate concentrations ([…]) at fixed enzyme concentration (30 nM), and fixed sulfonated compounds concentrations (0, 25, 50, 100, 200, 400, and 800 nM). The data were fitted by the Michaelis-Menten Equation (3) to determine the KM (substrate affinity) and VMAX (maximum reaction velocity).
To understand the mechanistic basis of inhibition, Michaelis-Menten kinetics of S-7388 hydrolysis by CatG was performed in the presence of inhibitor 2 at pH 7.4 and 37° C. […] Table 5 and FIG. 5.

Human FXIa = Human FXIa (Homo sapiens, UniProt P03951); assay: Direct inhibition of FXIa, chromogenic substrate hydrolysis assay; conditions: Tris-HCl buffer
Chain of Human FXIa (P03951 388-625): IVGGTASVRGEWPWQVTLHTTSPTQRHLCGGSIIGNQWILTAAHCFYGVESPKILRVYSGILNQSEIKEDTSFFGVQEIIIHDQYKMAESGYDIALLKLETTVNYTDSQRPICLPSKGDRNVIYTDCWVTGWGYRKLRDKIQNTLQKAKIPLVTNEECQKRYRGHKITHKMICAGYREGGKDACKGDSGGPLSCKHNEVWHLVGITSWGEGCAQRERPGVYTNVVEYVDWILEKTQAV
Chain of Human FXIa (P03951 19-387 partner): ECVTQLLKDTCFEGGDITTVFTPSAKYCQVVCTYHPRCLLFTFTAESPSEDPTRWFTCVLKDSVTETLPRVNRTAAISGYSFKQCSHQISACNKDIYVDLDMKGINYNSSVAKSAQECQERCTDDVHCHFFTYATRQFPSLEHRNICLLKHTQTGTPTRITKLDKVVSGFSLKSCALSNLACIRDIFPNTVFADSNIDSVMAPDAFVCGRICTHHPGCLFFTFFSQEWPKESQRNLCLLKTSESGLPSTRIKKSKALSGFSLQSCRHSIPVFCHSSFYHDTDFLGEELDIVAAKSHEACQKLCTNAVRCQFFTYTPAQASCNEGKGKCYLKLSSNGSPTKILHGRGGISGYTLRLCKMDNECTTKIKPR
Protocol: Direct inhibitions of thrombin (FIIa), factor VIIa (FVIIa), factor IXa (FIXa), factor Xa (FXa), FXIa, factor XIIa (FXIIa), trypsin and chymotrypsin were evaluated using the corresponding chromogenic substrate hydrolysis assays as previously reported. Briefly, to each well of a 96-well microplate containing 85-185 μl of […] Tris buffer containing 100 mM NaCl, 2.5 mM CaCl2, 0.1% PEG 8000, and 0.05% tween 80 at 25 (thrombin) or 37° C. (FVIIa, FIXa, FXa, FXIa, FXIIa, chymotrypsin, and trypsin) were added 5 μl of enzyme (thrombin, FVIIa, FIXa, FXa, FXIa, FXIIa, chymotrypsin, and trypsin) and 5 μl of the inhibitor. Following an incubation period of 5 min, the appropriate chromogenic substrates (Spectrozyme TH, Spectrozyme FIXa, Spectrozyme FXa, S-2366, Spectrozyme FXIIa and S-2222) were added and the residual enzyme activity was measured from the initial rate of increase in absorbance at 405 nm. Relative residual enzyme activity as a function of the inhibitor concentration was fitted using Logistic Equation (1) to obtain the IC50 (potency), A Y % (efficacy) of enzyme inhibition, and HS (Hill slope). The concentrations of enzymes and substrates in microplate cells were: 6 nM and 50 μM for thrombin; 1.09 nM and 125 μM for FXa; 5 nM and 125 μM for FXIIa; 89 nM and 850 μM for FIXa; 8 nM and 1000 µM for FVIIa (along with 40 nM recombinant tissue factor); 72.5 ng/ml and 80 μM for bovine trypsin; and 500 ng/ml and 240 μM for bovine chymotrypsin.

CatG [2] = molecular target: T1, CatG; assay: Direct inhibition of human CatG, chromogenic substrate hydrolysis assay
Protocol: The method further comprises inhibition of proteases. […] To each well of a 96-well microplate containing 88 μl of 20 mM tris buffer containing 100 mM NaCl, 2.5 mM CaCl2, 0.1% PEG 8000 and 0.05% tween 80 was added 3 μl of CatG (final concentration of 30 nM), and 5 μl of H2O or potential inhibitor (final concentration of 0-100 μM). Following a 5-min incubation, 3 μl of CatG substrate was added (final concentration 750 μM) and the residual CatG activity was obtained from the initial rate of increase of absorbance at 405 nm. The relative residual activity of CatG at each of the inhibitor concentrations was obtained from the ratio of CatG activity in the presence and absence of the inhibitor. Logistic Equation (1) was used to plot the dose-dependence curve to obtain the IC50 (potency) and efficacy of CatG inhibition. Here, Y is the ratio of residual CatG activity in the presence of inhibitor to that in its absence, YO and YM are the minimum and maximum values of fractional residual CatG activity, respectively, IC50 is the concentration of the inhibitor that results in 50% inhibition of CatG activity and HS is the Hill slope.
To each well of a 96-well microplate containing 88 μl of 20 mM tris buffer containing 100 mM NaCl, 2.5 mM CaCl2, 0.1% PEG 8000 and 0.05% tween 80 was added 3 μl of CatG (final concentration of 30 nM), and 5 μl of H2O or potential inhibitor (final concentration of 0-100 μM). Following a 5-min incubation, 3 μl of CatG substrate was added (final concentration 750 μM) and the residual CatG activity was obtained from the initial rate of increase of absorbance at 405 nm. The relative residual activity of CatG at each of the inhibitor concentrations was obtained from the ratio of CatG activity in the presence and absence of the inhibitor. Logistic Equation (1) was used to plot the dose-dependence curve to obtain the IC50 (potency) and efficacy of CatG inhibition. Here, Y is the ratio of residual CatG activity in the presence of inhibitor to that in its absence, YO and YM are the minimum and maximum values of fractional residual CatG activity, respectively, IC50 is the concentration of the inhibitor that results in 50% inhibition of CatG activity and HS is the Hill slope.

Which “Decrease of VMAX, absence of inhibitor vs 800 nM” value (CatG [1]; 0 vs 800 nM inhibitor) does the source give for `O=C(Nc1cc(C(=O)Nc2ccc(S(=O)(=O)O)cc2S(=O)(=O)O)cc(C(=O)Nc2ccc(S(=O)(=O)O)cc2S(=O)(=O)O)c1)Nc1cc(C(=O)Nc2ccc(S(=O)(=O)O)cc2S(=O)(=O)O)cc(C(=O)Nc2ccc(S(=O)(=O)O)cc2S(=O)(=O)O)c1` [Formula II, 4,4′,4″,4′-((5,5′-(carbonylbis(azanediyl))bis(isophthaloyl))tetrakis(azanediyl))tetrakis(benzene-1,3-disulfonic acid)] here?
The value was about 3 fold.

And the Km (CatG [1]; Formula II 40 nM)?
Its Km is 1200 ± 300 µM.

And the Vmax (CatG [1]; Formula II 40 nM)?
Its Vmax is 26.1 ± 2.5 mAU/min.

And the Km (CatG [1]; Formula II 100 nM)?
Its Km is 1290 ± 190 µM.

And the Vmax (CatG [1]; Formula II 100 nM)?
Its Vmax is 17.6 ± 1.1 mAU/min.

And the Km (CatG [1]; Formula II 400 nM)?
Its Km is 1400 ± 220 µM.

What about the Vmax (CatG [1]; Formula II 400 nM) of the same molecule?
The Vmax was 11.4 ± 0.8 mAU/min.

What about the Km (CatG [1]; Formula II 800 nM) of the same molecule?
Its Km is 1320 ± 207 µM.

What about the Vmax (CatG [1]; Formula II 800 nM) of the same molecule?
The Vmax was 10.6 ± 0.95 mAU/min.

And the Vmax (CatG [1]; Formula II 800 nM, listed as inhibitor 2)?
The Vmax was 10.6±0.95 mAU/min.

And the “KM for S-7388 in the presence or absence of inhibitor” value (CatG [1]; inhibitor 0-800 nM, pH 7.4, 37° C.)?
Its value is “essentially unchanged”.

What about the IC50 (Human FXIa) of the same molecule?
Its IC50 is over 500 µM.

And the IC50 (CatG [2]; Table 6, read-out: CATG IC50)?
Its IC50 is 0.09 µM.

And the “HS (Hill slope)” value (CatG [2]; Tris buffer pH 7.4, 37° C.)?
The value was 1.5 ± 0.3.

And the “ΔY (efficacy)” value (CatG [2]; Tris buffer pH 7.4, 37° C.)?
The value was 82.5 ± 7.4%.

And the IC50 (CatG [2]; Tris buffer pH 7.4, 37° C., 100 mM NaCl, read-out: IC50)?
Its IC50 is 0.09 ± 0.01 µM.

— US20250100963A1, “SULFONATED AND PHOSPHORYLATED AROMATIC MOLECULES” (Xavier University of Louisiana, priority 2023, published 2025)
